In patent publication US20060128653A1, “Pharmaceutical formulation of decitabine” (priority 2004, published 2006):
Values after ≈ are worked out from the molar mass of the structure shown. Where two headings read alike, the source gives them in different places.

Columns and labels:
[1] = Solubility in 40% w/w cyclodextrin solutions versus potassium phosphate buffer; type: physicochemical; conditions: thermodynamic from solid, room temperature (20-25° C.)
Method: (§1) Aqueous solutions of cyclodextrin at pH 6.7-7.2 were prepared by dissolving 4 parts of cyclodextrins (hydroxypropyl α-cyclodextrin (HPACD), hydroxypropyl β-cyclodextrin (HPBCD), β-cyclodextrin (BCD), hydroxypropyl γ-cyclodextrin (HPGCD), or CAPTISOL) in 6 parts of potassium phosphate buffer (50 mM KH2PO4, pH 7.0), resulting solutions of 40% w/w cyclodextrins.
as §1, with “(HPBCD),” for “(HPBCD), β-cyclodextrin (BCD),”

[2] = UV spectroscopy of decitabine-HPBCD complex formation; type: physicochemical; conditions: absorbance at 262 nm, room temperature, 1:1 stoichiometry assumed, least-squares fit
[3] = Chemical stability of decitabine in cyclodextrin solutions (HPLC potency); type: physicochemical; conditions: 2-8° C. and 25° C., percentage of total peak areas at 220 nm, FIGS. 1 and 2
Method: The chemical stability of decitabine in the cyclodextrin solutions and in the phophate buffer as prepared above was determined. The initial decitabine concentration for all the solutions was 17-18 mg/mL at the beginning of the experiment at 2-8° C.; 9-10 mg/mL at the beginning of the experiment at 25° C. Decitabine potency was assayed by a HPLC method, and expressed as a percentage of total peak areas at 220 nm.

[4] = cited from earlier work
[5] = 40% w/w Captisol aqueous solution, aqueous with cosolvent or surfactant or cyclodextrin, 40% Captisol (w/w, pH 6.7)
[6] = 40% w/w HPACD aqueous solution, aqueous with cosolvent or surfactant or cyclodextrin, 40% HPACD (w/w, pH 7.0)
[7] = 40% w/w HPBCD aqueous solution, aqueous with cosolvent or surfactant or cyclodextrin, 40% HPBCD (w/w, pH 7.2)
[8] = potassium phosphate buffer, aqueous buffer, KPi (50 mM KH2PO4, pH 7.0)

solubility [1, 5] | solubility [1, 6] | solubility [1, 7] | solubility ([1]; 40% w/w HPGCD aqueous solution, aqueous with cosolvent or surfactant or cyclodextrin, 40% HPGCD (w/w, pH 7.0)) | solubility [1, 8] | Complex formation constant Kf for decitabine-HPBCD complex [2] | Stability of decitabine in aqueous solution with cyclodextrins as excipients [3] | Structure (SMILES) | Steady-state plasma concentration (estimated) ([4]; 6-hour infusion of 100 mg/m^2) | Range of plasma concentrations ([4]; 600-mg/m^2 infusion) | Terminal half-life ([4]; humans, measured by bioassay) | Half-life after discontinuing the infusion ([4]; humans) | Total urinary excretion, % of the administered dose ([4]; humans) | Volume of distribution ([4]; humans) | Steady-state plasma concentration (estimated) ([4]; infusion rate of 1 mg/kg/h) | Plasma concentration ([4]; infusion times of 40-60 hours, infusion rate 1 mg/kg/h) | Penetration into the cerebrospinal fluid, % of the plasma concentration ([4]; man, end of a 36-hour intravenous infusion) | Plasma concentration ([4]; patients, 100 mg/m^2 as a 3-hour infusion)
26 mg/mL (≈ 106 mM) | 20 mg/mL (≈ 81.9 mM) | 26 mg/mL (≈ 106 mM) | 22 mg/mL (≈ 90.1 mM) | 19 mg/mL (≈ 77.8 mM) | – | – | Nc1ncn([C@@H]2O[C@H](CO)[C@@H](O)[C@H]2O)c(=O)n1 [5-azacytidine] | – | – | – | – | – | – | – | – | – | –
42 mg/mL (≈ 184 mM) | 18 mg/mL (≈ 78.9 mM) | 44 mg/mL (≈ 193 mM) | – | 18 mg/mL (≈ 78.9 mM) | 23 M⁻¹ | dramatically improve the stability | Nc1ncn([C@H]2C[C@H](O)[C@@H](CO)O2)c(=O)n1 [decitabine, 5-aza-2′-deoxycytidine] | 0.31 to 0.39 µg/mL | 0.41 to 16 µg/mL | 10 to 35 min | 12 to 20 min | less than 1% | about 4.6 L/kg | 0.2 to 0.5 µg/mL | 0.43 to 0.76 µg/mL | 14-21% | about 0.4 μg/ml
